Eleven molecules from ChEMBL document CHEMBL1201862, “PubChem BioAssay data set” (2004) can be followed below.

In general, GI50 refers to the concentration that inhibits growth by half.

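Compound exposure: 48 hours, 5 concentrations, 96-well plates. Abbreviation: GI50, concentration required for 50% inhibition of growth.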 Activity calls are given as the source filed them. No stated cut-off is given here; in the data, active = GI50 up to about 1.1 µM and inactive = higher.

Test systems include 786-0; A549; BT-549; HCT-15; HL-60; HOP-62; HT-29; K562; Malme-3M; NCI-H226; NCI-H23; OVCAR-3; OVCAR-5; SF-295; SF-539; SK-MEL-2; SNB-19; SNB-75; UO-31.
Holding throughout (test): DTP human tumour cell line panel, 48 h

On to `CN1C(=O)C(O)CC1c1ccccc1F` (stereo not drawn), for which the GI50 in the assay on 786-0 was > 100 µM (inactive); with A549, > 100 µM (inactive); with BT-549, > 100 µM (inactive); with HCT-15, more than 100 µM; in the assay on HL-60, > 100 µM (inactive); in the assay with HOP-62 it was > 100 µM (inactive). For the same molecule, the GI50 in the assay with HT-29, in the assay on K562, in the assay with Malme-3M, in the assay with NCI-H226, with NCI-H23 and in the assay on OVCAR-3 was > 100 µM (inactive) each time. Moreover, the GI50 in the assay with OVCAR-5, with SF-295, in the assay with SF-539, with SK-MEL-2, in the assay on SNB-19 and with SNB-75 was > 100 µM (inactive) in each case. Also, the GI50 in the assay on UO-31 is > 100 µM (inactive).

Turning to `CC(C)C1OC2(C)OC(=N)C1(C#N)C(C#N)(C#N)C2C` (stereo not drawn), the GI50 in the assay with 786-0 is 19.4 µM (inactive); in the assay on A549, > 100 µM (inactive); in the assay with BT-549, 51.6 µM (inactive); in the assay with HCT-15 it was 12.8 µM; in the assay on HL-60, 15.9 µM (inactive); with HT-29, 16.3 µM (inactive). Also, the GI50 in the assay with K562 is 30 µM (inactive); in the assay with Malme-3M, 19.6 µM (inactive); with NCI-H226 it was > 100 µM (inactive); in the assay on NCI-H23 it was 30.6 µM (inactive); with OVCAR-3, 17.7 µM (inactive); in the assay with OVCAR-5, 25.6 µM (inactive). For the same molecule, the GI50 was > 100 µM (inactive) with SF-295; 24.6 µM (inactive) in the assay with SF-539; 17.6 µM (inactive) in the assay with SK-MEL-2; > 10 µM (inactive) in the assay on SNB-19; 32.1 µM (inactive) with SNB-75; 45.7 µM (inactive) in the assay on UO-31.

With `COc1ccc(N2C(=O)c3cc(C)cnc3S2(=O)=O)cc1`, the GI50 in the assay with 786-0 is > 100 µM (inactive); in the assay with A549, > 100 µM (inactive); in the assay with BT-549, > 100 µM (inactive); in the assay with HCT-15, more than 100 µM; in the assay on HL-60, > 100 µM (inactive); with HOP-62, > 100 µM (inactive). Besides, the GI50 in the assay with HT-29, with K562, in the assay with Malme-3M, with NCI-H226, in the assay on NCI-H23 and with OVCAR-3 was > 100 µM (inactive) throughout. Moreover, the GI50 in the assay with OVCAR-5, in the assay with SF-295, with SK-MEL-2, with SNB-19, in the assay on SNB-75 and in the assay on UO-31 was > 100 µM (inactive) throughout.

Take `Cc1cc(S(=O)(=O)Nc2nc(N)n[nH]2)c(S)cc1Cl`: the GI50 was > 10 µM (inactive) in the assay on 786-0; > 10 µM (inactive) with A549; > 10 µM (inactive) in the assay on BT-549; more than 10 µM in the assay on HCT-15; > 10 µM (inactive) in the assay with HL-60; > 10 µM (inactive) with HOP-62. For the same molecule, the GI50 in the assay with HT-29, with K562, with Malme-3M, with NCI-H226, in the assay on NCI-H23 and with OVCAR-3 was > 10 µM (inactive) throughout. The GI50 in the assay on OVCAR-5, in the assay with SF-295, in the assay on SF-539, in the assay with SK-MEL-2, with SNB-19 and in the assay with SNB-75 was > 10 µM (inactive) in each case.

As for `CCOC(=O)c1nc2ccc(C(F)(F)F)cc2nc1Oc1ccc(C(=O)OC)cc1`, the GI50 is 66.1 µM (inactive) in the assay with 786-0; 39.1 µM (inactive) in the assay on BT-549; more than 100 µM with HCT-15; > 100 µM (inactive) in the assay on HL-60; 22.5 µM (inactive) with HOP-62; 81.7 µM (inactive) in the assay with HT-29. The GI50 with K562 was > 100 µM (inactive); in the assay on NCI-H226, 45.5 µM (inactive); in the assay on NCI-H23, 97.5 µM (inactive); with SF-295 it was 54.8 µM (inactive); in the assay on SF-539 it was 77.8 µM (inactive); in the assay on SK-MEL-2, 32.1 µM (inactive). In addition, the GI50 in the assay with SNB-19 is 46.8 µM (inactive); in the assay with SNB-75, 50.4 µM (inactive); in the assay on UO-31, > 100 µM (inactive).

As for `COC(=O)c1cccc2c1Oc1ccccc1S2`, the GI50 was 42.9 µM (inactive) in the assay with 786-0; 75.2 µM (inactive) in the assay on A549; 60.3 µM (inactive) in the assay on BT-549; 46.1 µM in the assay with HCT-15; 8.18 µM (inactive) with HL-60; > 100 µM (inactive) in the assay with HOP-62. Also, the GI50 in the assay with HT-29 is 25.9 µM (inactive); in the assay on K562, 57.9 µM (inactive); in the assay with NCI-H226 it was 37.4 µM (inactive); in the assay with OVCAR-3, > 100 µM (inactive); in the assay on OVCAR-5 it was 73.8 µM (inactive); in the assay on SF-295, 60.8 µM (inactive). Besides, the GI50 was 55.1 µM (inactive) with SF-539; > 100 µM (inactive) in the assay on SK-MEL-2; 41.2 µM (inactive) with SNB-19; 24.1 µM (inactive) in the assay with SNB-75; 31.8 µM (inactive) with UO-31.

For `COC(=O)/C=C\C(C#N)(C#N)/N=C/c1ccc(Br)s1`, the GI50 is 5.42 µM (inactive) with 786-0; 21.2 µM (inactive) in the assay on A549; 4.79 µM (inactive) in the assay with BT-549; 2.18 µM in the assay with HCT-15; 1.85 µM (inactive) in the assay on HL-60; 17.6 µM (inactive) in the assay with HOP-62. Further, the GI50 in the assay on HT-29 is 2.35 µM (inactive); with K562 it was 4.3 µM (inactive); with Malme-3M it was 1.77 µM (inactive); in the assay on NCI-H226, 3.18 µM (inactive); with NCI-H23, 9.2 µM (inactive); with OVCAR-3 it was 11 µM (inactive). The GI50 in the assay with OVCAR-5 was 9.64 µM (inactive); in the assay on SF-295, 17.7 µM (inactive); in the assay with SK-MEL-2, 17.3 µM (inactive); in the assay with SNB-19, 14.8 µM (inactive); with SNB-75 it was 15.2 µM (inactive); in the assay with UO-31 it was 2.39 µM (inactive).

Take `NC(=S)N/N=c1\cc(C(=O)Nc2ccc([N+](=O)[O-])cc2[N+](=O)[O-])oc2ccccc12`: the GI50 was > 100 µM (inactive) in the assay with 786-0; > 100 µM (inactive) with A549; > 100 µM (inactive) with BT-549; more than 100 µM with HCT-15; > 100 µM (inactive) in the assay on HL-60; > 100 µM (inactive) in the assay with HOP-62. Moreover, the GI50 in the assay on HT-29 is > 100 µM (inactive); in the assay with NCI-H226 it was 88.9 µM (inactive); in the assay on NCI-H23 it was > 100 µM (inactive); in the assay with OVCAR-3, 85.5 µM (inactive); with OVCAR-5, > 100 µM (inactive); in the assay on SF-295, > 100 µM (inactive). For the same molecule, the GI50 in the assay with SF-539 was > 100 µM (inactive); in the assay with SK-MEL-2 it was > 100 µM (inactive); in the assay on SNB-19 it was > 100 µM (inactive); in the assay on SNB-75, > 100 µM (inactive); with UO-31 it was 29.8 µM (inactive).

`Nc1nc(Cl)c(/C=N\O)c(NCC2(CO)CC(=O)C2)n1`: the GI50 with 786-0 is 49.1 µM (inactive); in the assay on A549, 30.8 µM (inactive); in the assay with BT-549, 51.5 µM (inactive); with HCT-15 it was more than 100 µM; in the assay with HL-60 it was 5.33 µM (inactive); in the assay on HOP-62, 76.9 µM (inactive). Besides, the GI50 in the assay on HT-29 is 80 µM (inactive); in the assay with K562 it was 54.2 µM (inactive); in the assay with Malme-3M it was 33.7 µM (inactive); in the assay with NCI-H226 it was > 100 µM (inactive); with NCI-H23, 36.4 µM (inactive); in the assay with OVCAR-3 it was 60.1 µM (inactive). Also, the GI50 in the assay with OVCAR-5 is 85.3 µM (inactive); in the assay on SF-295 it was 56 µM (inactive); in the assay with SF-539, 78.2 µM (inactive); in the assay with SNB-19, > 100 µM (inactive); in the assay on SNB-75, 31.1 µM (inactive); in the assay on UO-31 it was 47.4 µM (inactive).

On to `COc1ccc(C2C3=C(N=C4SC(C(C)=O)=C(C)N42)c2ccccc2CC3)cc1` (stereo not drawn), for which the GI50 with 786-0 was > 100 µM (inactive); with A549, 83 µM (inactive); in the assay on BT-549, 81.8 µM (inactive); in the assay on HCT-15, more than 100 µM; in the assay with HL-60 it was 10.1 µM (inactive); with HOP-62, > 100 µM (inactive). In addition, the GI50 in the assay on HT-29 was 6.52 µM (inactive); with NCI-H226, 18.7 µM (inactive); with NCI-H23, 80 µM (inactive); in the assay on OVCAR-3 it was > 100 µM (inactive); in the assay with OVCAR-5 it was > 100 µM (inactive); in the assay with SF-295 it was > 100 µM (inactive). Besides, the GI50 is > 100 µM (inactive) with SF-539; > 100 µM (inactive) with SK-MEL-2; > 100 µM (inactive) with SNB-19; > 100 µM (inactive) with SNB-75; 91.6 µM (inactive) with UO-31.

In the case of `CC1(C)C2CC3C4CC5(Nc6ccccc6C5N41)[C@]3(C)CC2=O` (stereo partly drawn), the GI50 was > 50 µM (inactive) in the assay on 786-0; > 50 µM (inactive) with A549; > 50 µM (inactive) in the assay with BT-549; more than 50 µM in the assay with HCT-15; > 50 µM (inactive) with HL-60; > 50 µM (inactive) in the assay on HOP-62. Besides, the GI50 with HT-29, in the assay with K562, with Malme-3M, in the assay on NCI-H226, with NCI-H23 and in the assay on OVCAR-3 was > 50 µM (inactive) each time. Moreover, the GI50 in the assay on OVCAR-5, in the assay on SF-295, in the assay with SF-539, in the assay with SK-MEL-2, in the assay with SNB-75 and in the assay on UO-31 was > 50 µM (inactive) throughout.
